Data taken from article PMC12388801, “Identification of Bioactive Peptides from Caenorhabditis elegans Secretions That Promote Indole-3-Acetic Acid Production in Arthrobacter pascens ZZ21” (Microorganisms, 2025).
Where two headings read alike, the source gives them in different places. Peptide text beside a SMILES is read from it.

Assay: Solubility assessment of synthetic candidate peptides
Protocol: Candidate peptide sequences identified by LC-MS/MS were synthesized using GenScript Biotech (Nanjing, China). Peptide solubility was tested in various solvents to determine optimal conditions for functional assays. Initial screening was performed in 30 mL of inorganic salt medium with 200 mg/L L-tryptophan. A. pascens ZZ21 was inoculated at 1% (v/v), and peptides were tested at 1 ppm and 0.1 ppm. The peptides were dissolved according to their solubility profiles, with corresponding solvent controls: CK-A (1 ppm blank) and CK-B (0.1 ppm blank). Cultures were incubated at 30 °C, 250 rpm for 48 h, after which IAA levels in the supernatants were measured.
This analysis was conducted by Biotech Pack Scientific Co., Ltd. (Beijing, China).

[1] = synthetic peptide, N/A = lower than 0.1 mg/mL
[2] = synthetic peptide, ultrapure water, N/A = lower than 0.1 mg/mL

| Compound | Solubilty in 0.1 M PBS [1] | Solubilty in ultrapure water [2] | Solubilty in ultrapure water | Solubilty in DMSO [1] |
| --- | --- | --- | --- | --- |
| CC(C)C[C@H](NC(=O)[C@H](CCC(N)=O)NC(=O)[C@@H]1CCCN1)C(=O)N[C@@H](CCC(=O)O)C(=O)N[C@@H](CC(C)C)C(=O)N[C@H](C(=O)N[C@H](C(=O)N1CCC[C@H]1C(=O)N[C@@H](CC(N)=O)C(=O)O)C(C)C)C(C)C [Peptide P22] (H-PQLELVVPN-OH) | N/A (N/A indicates solubility lower than 0.1 mg/mL) | N/A (N/A indicates solubility lower than 0.1 mg/mL) | – | – |
| CC(C)C[C@H](NC(=O)CNC(=O)[C@H](Cc1ccccc1)NC(=O)[C@H](C)NC(=O)[C@H](CC(C)C)NC(=O)[C@H](C)NC(=O)[C@H](CC(C)C)NC(=O)[C@@H](N)[C@@H](C)O)C(=O)N[C@H](C(=O)N[C@@H](C)C(=O)O)[C@@H](C)O [Peptide P12] (H-TLALAFGLTA-OH) | – | N/A (N/A indicates solubility lower than 0.1 mg/mL) | – | – |
| CC(C)[C@H](NC(=O)[C@H](CCC(=O)O)NC(=O)[C@H](C)NC(=O)[C@H](Cc1ccccc1)NC(=O)[C@H](CCC(=O)O)NC(=O)[C@H](C)N)C(=O)N[C@@H](CO)C(=O)N[C@@H](CCCCN)C(=O)O [Peptide P6] (H-AEFAEVSK-OH) | – | – | ≤ 5 mg/mL | – |
| CC(C)C[C@H](NC(=O)[C@H](C)NC(=O)[C@@H](NC(=O)CNC(=O)[C@@H](NC(=O)[C@H](CO)NC(=O)[C@@H](NC(=O)[C@@H]1CCCN1C(=O)[C@@H](N)CCC(=O)O)[C@@H](C)O)C(C)C)C(C)C)C(=O)N[C@@H](C)C(=O)N[C@@H](CCC(=O)O)C(=O)O [Peptide P30] (H-EPTSVGVALAE-OH) | – | N/A (N/A indicates solubility lower than 0.1 mg/mL) | – | N/A (N/A indicates solubility lower than 0.1 mg/mL) |
| CC(C)C[C@H](NC(=O)[C@H](CCC(=O)O)NC(=O)[C@H](Cc1ccc(O)cc1)NC(=O)[C@H](Cc1ccc(O)cc1)NC(=O)[C@@H](N)CC(C)C)C(=O)N[C@@H](C)C(=O)N[C@@H](CCCNC(=N)N)C(=O)O [Peptide P14] (H-LYYELAR-OH) | N/A (N/A indicates solubility lower than 0.1 mg/mL) | N/A (N/A indicates solubility lower than 0.1 mg/mL) | – | – |
| CC(C)[C@H](NC(=O)[C@H](C)NC(=O)[C@@H](NC(=O)[C@H](C)NC(=O)[C@H](CO)NC(=O)CN)C(C)C)C(=O)NCC(=O)N[C@@H](CCCNC(=N)N)C(=O)O [Peptide P5] (H-GSAVAVGR-OH) | N/A (N/A indicates solubility lower than 0.1 mg/mL) | – | – | – |
| CC(C)C[C@H](NC(=O)[C@H](CCC(N)=O)NC(=O)[C@@H]1CCCN1)C(=O)N[C@@H](CCC(=O)O)C(=O)N[C@H](C(=O)N[C@@H](CC(C)C)C(=O)N[C@H](C(=O)N1CCC[C@H]1C(=O)N[C@@H](CC(N)=O)C(=O)O)C(C)C)C(C)C [Peptide P20] (H-PQLEVLVPN-OH) | N/A (N/A indicates solubility lower than 0.1 mg/mL) | N/A (N/A indicates solubility lower than 0.1 mg/mL) | – | – |
| CC(C)C[C@H](NC(=O)[C@H](CO)NC(=O)[C@H](CC(C)C)NC(=O)[C@H](CC(=O)O)NC(=O)[C@H](CC(C)C)NC(=O)[C@@H](N)Cc1ccccc1)C(=O)N[C@@H](CCCCN)C(=O)O [Peptide P18] (H-FLDLSLK-OH) | N/A (N/A indicates solubility lower than 0.1 mg/mL) | N/A (N/A indicates solubility lower than 0.1 mg/mL) | – | – |
| CC(C)C[C@H](NC(=O)CNC(=O)[C@H](CO)NC(=O)[C@@H](N)CC(=O)O)C(=O)N[C@H](C(=O)N[C@@H](CC(C)C)C(=O)N[C@@H](CCCCN)C(=O)O)C(C)C [Peptide P11] (H-DSGLVLK-OH) | N/A (N/A indicates solubility lower than 0.1 mg/mL) | – | – | N/A (N/A indicates solubility lower than 0.1 mg/mL) |
| CC(C)C[C@H](NC(=O)[C@H](Cc1ccccc1)NC(=O)[C@H](CC(=O)O)NC(=O)[C@@H](NC(=O)[C@H](CC(C)C)NC(=O)[C@@H](N)[C@@H](C)O)C(C)C)C(=O)N[C@@H](CCCNC(=N)N)C(=O)O [Peptide P25] (H-TLVDFLR-OH) | N/A (N/A indicates solubility lower than 0.1 mg/mL) | N/A (N/A indicates solubility lower than 0.1 mg/mL) | – | – |
| CC(C)[C@H](N)C(=O)N[C@H](C(=O)N[C@@H](CC(=O)O)C(=O)N[C@H](C(=O)N[C@@H](CO)C(=O)N[C@@H](CCC(=O)O)C(=O)N[C@H](C(=O)N[C@@H](Cc1ccccc1)C(=O)N[C@@H](Cc1ccccc1)C(=O)N[C@@H](CCCCN)C(=O)O)C(C)C)C(C)C)[C@@H](C)O [Peptide P28] (H-VTDVSEVFFK-OH) | N/A (N/A indicates solubility lower than 0.1 mg/mL) | N/A (N/A indicates solubility lower than 0.1 mg/mL) | – | – |
| CC(C)C[C@H](NC(=O)[C@H](C)NC(=O)[C@H](CC(N)=O)NC(=O)CN)C(=O)N[C@@H](C)C(=O)N[C@H](C(=O)N[C@@H](CCCNC(=N)N)C(=O)O)[C@@H](C)O [Peptide P1] (H-GNALATR-OH) | N/A (N/A indicates solubility lower than 0.1 mg/mL) | – | – | – |
| CC(C)C[C@H](NC(=O)[C@H](CC(C)C)NC(=O)[C@H](CC(N)=O)NC(=O)[C@@H](NC(=O)[C@H](CO)NC(=O)[C@@H](NC(=O)[C@@H]1CCCN1C(=O)[C@@H](N)CCC(=O)O)[C@@H](C)O)C(C)C)C(=O)N[C@@H](C)C(=O)N[C@@H](CCC(=O)O)C(=O)O [Peptide P29] (H-EPTSVNLLAE-OH) | N/A (N/A indicates solubility lower than 0.1 mg/mL) | N/A (N/A indicates solubility lower than 0.1 mg/mL) | – | – |
| CC(C)C[C@H](NC(=O)CNC(=O)[C@H](CC(C)C)NC(=O)[C@H](C)NC(=O)[C@H](C)NC(=O)[C@H](CO)NC(=O)[C@H](C)NC(=O)[C@H](C)NC(=O)[C@H](CCC(N)=O)NC(=O)[C@H](CC(C)C)NC(=O)[C@@H](N)C(C)C)C(=O)O [Peptide P24] (H-VLQAASAALGL-OH) | N/A (N/A indicates solubility lower than 0.1 mg/mL) | N/A (N/A indicates solubility lower than 0.1 mg/mL) | – | – |
| CC(C)C[C@H](NC(=O)[C@H](CCC(N)=O)NC(=O)[C@H](CC(C)C)NC(=O)[C@@H](NC(=O)[C@@H](N)CC(C)C)C(C)C)C(=O)N[C@@H](CC(=O)O)C(=O)N[C@@H](CC(N)=O)C(=O)N[C@@H](C)C(=O)N[C@@H](CCCCN)C(=O)O [Peptide P13] (H-LVLQLDNAK-OH) | N/A (N/A indicates solubility lower than 0.1 mg/mL) | N/A (N/A indicates solubility lower than 0.1 mg/mL) | – | – |
| CC(C)C[C@H](NC(=O)[C@H](CC(=O)O)NC(=O)[C@@H](NC(=O)[C@@H](NC(=O)[C@@H](N)CC(C)C)[C@@H](C)O)C(C)C)C(=O)N[C@@H](Cc1ccccc1)C(=O)N[C@@H](CCCNC(=N)N)C(=O)O [Peptide P27] (H-LTVDLFR-OH) | N/A (N/A indicates solubility lower than 0.1 mg/mL) | N/A (N/A indicates solubility lower than 0.1 mg/mL) | – | – |
